Results reported in patent publication US8936941B2, “Compositions useful for cancer detection and treatment, a cancer stem cell model, and methods of production and use thereof” (priority 2008, dated 2015).
Entries after “also recorded” stand apart in the source; their conditions may differ.

Key:
HCT116 tumor xenografts = assay: HCT116 tumor xenograft model in athymic nude mice, intratumoral treatment; type: in vivo
Excerpt: Real-time reverse transcription-PCR analyses. Total RNA isolated either from cells or from human colon cancer cell tumor xenograft samples was subjected to reverse transcription with Superscript™ II RNase H—Reverse Transcriptase and random hexanucleotide primers (Invitrogen, Carlsbad, Calif.). The cDNA was subsequently used to perform Real-time PCR by SYBR chemistry (SYBR® Green I; Molecular Probes) for specific transcripts using gene specific primers and Jumpstart Taq DNA polymerase (Sigma-Aldrich, St. Louis, Mo.). […] The changes in mRNA were expressed as fold change relative to control with ±SEM value.
miRNA analysis. Total miRNA was isolated using mirVana™ miRNA isolation kit (Ambion Inc.). Total miRNA isolated either from cells or from human colon cancer cell tumor xenograft samples were subjected to reverse transcription with Superscript™ II RNase H—Reverse Transcriptase and random hexanucleotide primers (Invitrogen, Carlsbad, Calif.). The cDNA was subsequently used to perform Real-time PCR by SYBR chemistry (SYBR® Green I; Molecular Probes) for pri-let-7a transcript using specific primers and Jumpstart Taq DNA polymerase (Sigma-Aldrich, St. Louis, Mo.). […] The changes in pri-miRNA were expressed as fold change relative to control with ±SEM value. Primers used are: […]
Western Blot analysis. HCT116 and SW480 cells were cultured in a 6 well plates to 40% confluency and were transfected with si-DCAMKL-1 or si-Scr for 72 h. Cells or the tumor xenograft samples were lysed and the concentration of protein was determined by BCA protein assay kit (Pierce Biotechnology Inc., Rockford, Ill.). […] The membrane was blocked in 5% non-fat dry milk for 1 h and probed overnight with a rabbit anti-DCAMKL-1 antibody (Abcam Inc., Cambridge, Mass.) or with rabbit anti-c-Myc antibody (Santa Cruz). Subsequently, the membrane was incubated with anti-rabbit or anti-goat IgG horseradish peroxidase-conjugated antibodies (Amersham-Pharmacia) for 1 h at room temperature. The 82 kDa DCAMKL-1 and 49 kDa c-Myc proteins were detected using ECL™ Western Blotting detection reagents (Amersham-Pharmacia). Actin (43 kDa), used as loading control was identified using a goat polyclonal IgG (Santa Cruz Biotechnology Inc., Santa Cruz, Calif.).
Immunohistochemistry. Heat Induced Epitope Retrieval was performed on 4 μm formalin-fixed paraffin-embedded sections utilizing a pressurized Decloaking Chamber (Biocare Medical) in citrate buffer (pH 6.0) at 99° C. for 18 min. (a) Brightfield: Slides were incubated in 3% hydrogen peroxide, then normal serum and BSA at room temperature for 20 min. After incubation with primary antibody [DCAMKL-1 C-terminal (Abcam), anti-c-Myc (Santa Cruz Biotechnologies), L-FABP (Santa Cruz Biotechnologies)], the slides were incubated in peroxidase-conjugated EnVision™+polymer detection kit (DAKO). Slides were developed with Diaminobenzidine (Sigma). (b) Fluorescence: Slides were first incubated in Image-iT FX signal enhancer (Invitrogen), followed by normal serum and BSA at room temperature for 20 min.
Xenograft tumor model. (a) Liposomal preparation: siRNA was administered into the xenografts after incorporation into 1,2-Dioleoyl-sn-Glycero-3-Phosphocholine (DOPC) (Avanti Polar Lipids, Alabaster, Ala.). DOPC and siRNA were mixed in the presence of excess tertiary butanol at a ratio of 1:10 (w/w) (siRNA/DOPC). Tween 20 (Sigma-Aldrich) was added to the mixture at a ratio of 1:19 Tween 20:siRNA/DOPC. The mixture was vortexed and frozen in an acetone/dry ice bath and lyophilized. Before administration, the siRNA preparation was reconstituted in 0.9% sterile saline and injected at a dose of 50 μl (5 μM) per injection. (b) Tumor therapy: Female athymic nude mice (NCr-nu) were purchased from the National Cancer Institute-Frederick Cancer Research and Development Center (Frederick, Md.) and housed in specific pathogen-free conditions.

[1] = system: let-7 family binding sites (similar to KRAS 3' UTR); assay: KRAS-Luc luciferase reporter gene assay in AsPC-1 cells; type: cell-based, human
Excerpt: Luciferase Reporter Gene Assay: pLet7a-Luc reporter vector contains a let-7a miRNA specific binding site at the 3′ UTR of the firefly (Photinus pyralis) luciferase gene, pMiR-144-Luc reporter vector containing miR-144 miRNA specific binding site at the 3′UTR of the firefly luciferase gene and KRAS-Luc reporter vector containing specific binding sites for let-7 family members at the 3′UTR of the firefly luciferase gene were obtained from Signosis, Inc. (Sunnyvale, Calif.). Human pancreatic cancer cell lines were transfected with the pLet7a-Luc, pMiR-144-Luc and KRAS-Luc reporter vectors separately with Renilla luciferase expressing plasmid pRL-TK (Promega) along with DCAMKL-1, or scrambled siRNA-using siPORT™ NeoFX™ transfection reagent (Ambion, Inc.). Luciferase activity was determined as per the manufacturer's instructions (Dual Luciferase Reporter Assay System; Promega) using a BioTek Synergy HT (Winooski, Vt.) as described herein above. The activity, normalized to Renilla luciferase activity, is presented as relative luciferase units relative to control with ±SEM values. Assays were performed in triplicate wells, and experiments were repeated 3 times.

[2] = real-time RT-PCR, compared to control and si-Scr treated tumors

Substance: si-DCAMKL-1: siRNA targeting the coding region of DCAMKL-1 (NM_004734), sequence GGGAGUGAGAACAAUCUAC (SEQ ID NO:3) (chemistry not given here; listed as Homo sapiens)
- DCAMKL-1 protein in tumors (HCT116 tumor xenografts; Western blot): reduced expression
- Notch-1 and cleaved Notch-1 protein in tumors (HCT116 tumor xenografts; Western blot analysis): marked reduction
- c-Myc protein in tumors (HCT116 tumor xenografts; Western blot and immunohistochemical analyses): striking reduction
- reduction in Notch-1 mRNA in tumors (HCT116 tumor xenografts; compared to controls): 55%
- reduction in c-Myc mRNA in tumors (HCT116 tumor xenografts; compared to controls): 45%
- downregulation of DCAMKL-1 mRNA expression in tumors (HCT116 tumor xenografts; [2]): 55%
- increase in pri-let-7a miRNA expression in tumors (HCT116 tumor xenografts; [2]): > 3 fold
- tumor size / xenograft growth (HCT116 tumor xenografts; siRNA in liposome preparation injected into tumors from day 15, every third day, 5 doses): statistically significant reduction; also recorded: near complete tumor growth arrest
- tumor weight (HCT116 tumor xenografts; tumors excised at day 28, after 5 injections): significantly decreased
- luciferase activity (KRAS-Luc, let-7 family binding sites) [1]: dose-dependent reduction
